Assay results reported in patent US10155021B2, “Antimicrobial 4-oxoquinolizines” (Emergent Product Development Gaithersburg Inc., priority 2011, dated 2018).

How the values were obtained:
Assay type in all cases: cell-based
[1] = system: K. pneumoniae BAA-2146 (NDM-1, FQ-R); assay: MIC on K. pneumoniae (Example 5); details: Klebsiella pneumoniae, BAA2146, read-out: MIC K. pneumoniae BAA-2146 (NDM-1, FQ-R)
Experimental: MIC Values for all compounds were measured against a selection of bacterial strains. The MICs of 4-oxoquinolizines against a selection of Gram-negative and Gram-positive bacterial strains are shown in Table 13 in comparison with known antibiotics.

[2] = system: GN31 Acinetobacter baumannii; assay: Pre-chequerboard MIC, broth microdilution (Example 6); details: antibiotic susceptible clinical isolate
Text: (§1) A chequerboard technique was used to identify possible synergistic or antagonistic interactions between the 4-oxoquinolizines compounds, levofloxacin and polymyxin B. Levofloxacin was included as a control. […] Final dilutions were made in Mueller-Hinton broth, the specific test medium used for MIC determinations according to CLSI guidelines (CLSI. Methods for Dilution Antimicrobial Susceptibility Tests for Bacteria That Grow Aerobically; Approved Standard-Eighth Edition (2009). CLSI Document M07-A8. CLSI, Wayne, Pa. 19087-1898, USA.). The test medium used was a cation-adjusted Mueller-Hinton Broth II (Becton Dickinson UK Ltd., Oxford Science Park, Oxford, UK, OX4 4DQ).
(§2) The compounds 2, 33 and 35, as well as levofloxacin were tested in combination with polymyxin B on the following isolates: GN31 Acinetobacter baumannii—antibiotic susceptible clinical isolate, GN52 Acinetobacter baumannii—levofloxacin resistant clinical isolate, GN56 Acinetobacter baumannii—levofloxacin resistant clinical isolate, GN48 Klebsiella pneumoniae—NCTC 13443—NDM-1-metallo-R-lactamase and GN10 Pseudomonas aeruginosa—ATCC 27853—antibiotic susceptible reference isolate. All isolates are from the collection maintained at Quotient Bioresearch Ltd., Cambridge, UK.
(§3) The MIC values for the compounds and polymyxin B and levofloxacin were determined by broth microdilution following CLSI guidelines, and the MICs of agents in combination were determined as described by Pillai et.al (Pillai S K, Moellering R C Jr, Eliopoulis G M; Antimicrobial Combinations in Antibiotics in Laboratory Medicine 5th Edition (V. Lorian Ed) (2005) p 365-440). Initial MIC results were used to determine the microtiter plate patterns for the chequerboards. A suitable doubling dilution concentration range was selected such that the combination antibiotic range was at least two concentrations above and four concentrations below the MIC for each isolate. A fixed range of 0.008 to 8 mg/L was tested for polymyxin B except in the case of A. baumannii GN31 where a range of 0.004 to 4 mg/L was tested when in combination with the compounds 2, 33 and 35 as well as levofloxacin.

[3] = system: GN48 Klebsiella pneumoniae; assay: as above; details: GN48 / NCTC 13443, NCTC 13443, NDM-1
Text: as §1, §2, §3

[4] = system: GN10 Pseudomonas aeruginosa; assay: as above; details: ATCC 27853 / GN10, ATCC 27853, antibiotic susceptible
Text: as §1, §2, §3

[5] = system: GN56 Acinetobacter baumannii; assay: as above; details: levofloxacin resistant clinical isolate
Text: as §1, §2, §3

[6] = system: GN52 Acinetobacter baumannii; assay: as above; details: levofloxacin resistant clinical isolate
Text: as §1, §2, §3

Cc1c(-c2cc(F)c(N)cc2F)ccn2c(=O)c(C(=O)[O-])cc(C3CC3)c12.[K+] [Compound 2 K salt, Potassium 8-(4-amino-2,5-difluoro-phenyl)-1-cyclopropyl-9-methyl-4-oxo-4H-quinolizine-3-carboxylate]
MIC [1]: > 8 µg/mL

Cc1c(-c2ccc(N)nc2)ccn2c(=O)c(C(=O)O)cc(C3CC3)c12 [Compound 33, 8-(6-amino-3-pyridyl)-1-cyclopropyl-9-methyl-4-oxo-quinolizine-3-carboxylic acid]
MIC [2]: 0.03 µg/mL | MIC [3]: 16 µg/mL | MIC [4]: 0.5 µg/mL | MIC [5]: 16 µg/mL | MIC [6]: 2 µg/mL
